Laboratory results taken from ChEMBL document CHEMBL4334427 (Medchemcomm, 2019).

How the values were obtained:
[1] = target: T1, 4-hydroxy-tetrahydrodipicolinate synthase (Escherichia coli K-12, UniProt P0A6L2); test: (§1) Inhibition of Escherichia coli dihydrodipicolinate synthase
T1 sequence (P0A6L2 whole entry): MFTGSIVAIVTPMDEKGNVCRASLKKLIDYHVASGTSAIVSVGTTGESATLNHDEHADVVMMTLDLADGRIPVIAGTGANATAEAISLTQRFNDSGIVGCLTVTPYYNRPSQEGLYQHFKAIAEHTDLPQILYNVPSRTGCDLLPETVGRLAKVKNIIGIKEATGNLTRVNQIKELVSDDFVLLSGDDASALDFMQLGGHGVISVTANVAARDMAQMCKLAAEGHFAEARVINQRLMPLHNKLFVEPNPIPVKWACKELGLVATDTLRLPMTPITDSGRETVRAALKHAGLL

[2] = target: T2, 4-hydroxy-tetrahydrodipicolinate synthase (Escherichia coli K-12) (UniProt P0A6L2); test: Competitive inhibition of Escherichia coli dihydrodipicolinate synthase using ASA as substrate
T2 sequence (whole entry): T1 sequence (P0A6L2 whole entry)

[3] = target: 4-hydroxy-tetrahydrodipicolinate synthase (Mycobacterium tuberculosis) (UniProt P9WP25); test: Inhibition of recombinant N-terminal His-6 tagged Mycobacterium tuberculosis dihydrodipicolinate synthase using (S)-ASA as substrate preincubated for 5 mins followed by substrate addition measured over 10 mins by spectrophotometric analysis relative to control
[4] = target: T2, 4-hydroxy-tetrahydrodipicolinate synthase (Escherichia coli K-12); test: Inhibition of Escherichia coli dihydrodipicolinate synthase at 1.2 mM relative to control
[5] = target: T1, 4-hydroxy-tetrahydrodipicolinate synthase; test: Reversible competitive inhibition of Escherichia coli dihydrodipicolinate synthase
[6] = target: T2, 4-hydroxy-tetrahydrodipicolinate synthase (Escherichia coli K-12); test: as §1
[7] = target: T1, 4-hydroxy-tetrahydrodipicolinate synthase; test: Inhibition of Escherichia coli dihydrodipicolinate synthase assessed as inhibitory dissociation constant using ASA as substrate
[8] = target: 4-hydroxy-tetrahydrodipicolinate synthase (Mycobacterium tuberculosis, UniProt P9WP25); test: Reversible inhibition of recombinant N-terminal His-6 tagged Mycobacterium tuberculosis dihydrodipicolinate synthase using (S)-ASA as substrate preincubated for 5 mins followed by substrate addition measured over 10 mins by spectrophotometric analysis
[9] = Reversible competitive inhibition of Bacillus subtilis PCI-219 dihydrodipicolinate synthase using pyruvate as substrate after 10 mins by double reciprocal plot analysis
[10] = Reversible competitive inhibition of Bacillus subtilis PCI-219 dihydrodipicolinate synthase using DL-ASA as substrate after 10 mins by double reciprocal plot analysis
[11] = target: T2, 4-hydroxy-tetrahydrodipicolinate synthase (Escherichia coli K-12); test: Competitive inhibition of Escherichia coli dihydrodipicolinate synthase using pyruvate as substrate
[12] = target: T2, 4-hydroxy-tetrahydrodipicolinate synthase (Escherichia coli K-12); test: Uncompetitive inhibition of Escherichia coli dihydrodipicolinate synthase using DL-ASA as substrate
[13] = target: T1, 4-hydroxy-tetrahydrodipicolinate synthase; test: Reversible inhibition of Escherichia coli dihydrodipicolinate synthase using pyruvate as substrate
[14] = target: T2, 4-hydroxy-tetrahydrodipicolinate synthase (Escherichia coli K-12); test: Competitive inhibition of Escherichia coli dihydrodipicolinate synthase using DL-ASA as substrate
[15] = Inhibition of Campylobacter jejuni dihydrodipicolinate synthase
[16] = target: T2, 4-hydroxy-tetrahydrodipicolinate synthase (Escherichia coli K-12); test: Inhibition of Escherichia coli dihydrodipicolinate synthase at 1 mM relative to control
[17] = target: T1, 4-hydroxy-tetrahydrodipicolinate synthase; test: Reversible inhibition of Escherichia coli dihydrodipicolinate synthase using ASA as substrate
[18] = Reversible inhibition of Campylobacter jejuni dihydrodipicolinate synthase
[19] = target: T2, 4-hydroxy-tetrahydrodipicolinate synthase (Escherichia coli K-12); test: Inhibition of Escherichia coli dihydrodipicolinate synthase at 4.6 mM relative to control
[20] = target: T2, 4-hydroxy-tetrahydrodipicolinate synthase (Escherichia coli K-12); test: Uncompetitive inhibition of Escherichia coli dihydrodipicolinate synthase using pyruvate as substrate

4-hydroxy-tetrahydrodipicolinate synthase (Mycobacterium tuberculosis), sequence (P9WP25 whole entry): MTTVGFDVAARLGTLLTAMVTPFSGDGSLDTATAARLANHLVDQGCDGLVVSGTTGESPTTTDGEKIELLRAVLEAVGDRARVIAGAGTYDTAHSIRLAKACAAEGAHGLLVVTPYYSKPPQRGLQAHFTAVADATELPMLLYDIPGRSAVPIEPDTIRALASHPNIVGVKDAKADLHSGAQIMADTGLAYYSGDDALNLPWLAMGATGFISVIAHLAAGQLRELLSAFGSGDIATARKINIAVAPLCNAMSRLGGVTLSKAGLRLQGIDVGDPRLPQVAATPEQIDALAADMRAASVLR
4-hydroxy-tetrahydrodipicolinate synthase (Mycobacterium tuberculosis, UniProt P9WP25), sequence (P9WP25 whole entry): as above

## c1cc(-c2nnn[nH]2)nc(-c2nnn[nH]2)c1
[1]
  IC50: 250 µM

## O=CCCC(=O)O
[2]
  Kis: 44 µM

## COC(=O)c1cccc(C(=O)OC)n1
[1]
  IC50: 700 µM

## O=C(O)CCCCC(O)C(=O)O (stereo unspecified)
[3]
  inhibition: 74%

## O=C(O)c1cccc(C(=O)O)c1 [ISOPHTHALIC ACID]
[1]
  Ki: 5400 to 5600 µM

## O=C(O)c1cccc(C(=O)O)n1 [DIPICOLINIC ACID]
[1]
  Ki: 11000 µM
[4]
  inhibition: 50%
[5]
  IC50: 400 µM

## CC(=O)C(=O)O
[6]
  Kic: 54 µM
  Kiuc: 12 µM

## N[C@@H](CCC(=O)O)C(=O)O [GLUTAMIC ACID]
[7]
  Ki: 9000 to 24000 µM

## O=C(O)C1=CCCC(C(=O)O)C1 (stereo unspecified)
[1]
  IC50: 15000 µM

## O=C(O)CCCCC(=O)C(=O)O
[8]
  Ki: 33 µM
[9]
  Ki: 160 µM
[10]
  Ki: 220 µM

## CCC(=O)C(=O)O
[11]
  Kis: 0.83 mM
[12]
  Kis: 1.3 mM

## O=C(O)C(=O)CBr [BROMOPYRUVATE]
[13]
  Ki: 160 µM

## NC1CCCC1=O (stereo unspecified)
[7]
  Ki: 12000 to 24000 µM

## NCCCC[C@H](N)C(=O)O [LYSINE]
[14]
  Kis: 0.2 mM
[1]
  IC50: 180 µM
[15]; read-out: IC50(app)
  IC50: 65 µM
[16]
  inhibition: 50%

## O=C(O)C(=O)CF
[14]
  Kis: 2 mM
[11]
  Kis: 0.22 mM

## N[C@@H](CC=O)C(=O)O
[6]
  Kic: 31 µM
  Kiuc: 26 µM

## N[C@@H](CC(=O)O)C(=O)O [ASPARTIC ACID]
[7]
  Ki: 21000 to 39000 µM
[17]
  Ki: 90 to 140 µM

## N[C@H]1CCOC1=O [HOMOSERINE LACTONE]
[13]
  Ki: 8000 to 15000 µM
[17]
  Ki: 12000 to 22000 µM

## O=NN1CCC[C@H]1C(=O)O
[1]
  IC50: 7500 µM

## CCCC(=O)C(=O)O
[11]
  Kis: 0.7 mM
[12]
  Kii: 1.6 mM

## NCCCC[C@@](N)(CC[C@](N)(CCCCN)C(=O)O)C(=O)O
[18]
  Ki: 0.14 µM
[15]; read-out: IC50
  IC50: 0.3 µM

## N#Cc1cccc(C#N)n1
[1]
  IC50: 300 µM

## O=CC(=O)O
[11]
  Kis: 0.016 mM
[12]
  Kii: 0.028 mM

## O=C(O)c1cccc(C(=O)O)[n+]1[O-]
[1]
  IC50: 200 µM

## COC(=N)c1cccc(C(=N)OC)n1
[1]
  IC50: 200 µM

## NCCSC[C@H](N)C(=O)O
[14]
  Kis: 2.4 mM
[12]
  Kii: 4.7 mM
[19]
  inhibition: 50%
[20]
  Kii: 1.9 mM

## O=NN1CCCCC1C(=O)O (racemic)
[1]
  IC50: 3500 µM
